# Results taken from US7294642B2, “1,3-Diamino-2-hydroxypropane pro-drug derivatives” (Elan Pharmaceuticals, Inc., priority 2002, dated 2007).
# Test: Acyl group migration (rearrangement) of pro-drug in DMSO-d6/buffer solution monitored by 19F-NMR
# Type: physicochemical
# Experimental: A compound of formula (I) OR (X) (5 mg) is dissolved in DMSO-d6 (500 μL) and either pH 4 buffer solution (500 μL, potassium hydrogen phthalate buffer) or pH 7 buffer solution (500 μL, sodium and potassium phosphate buffer) is added. The sample is then heated to 40° C. The O-acyl or N-acyl to N-terminal N-acyl migration is monitored by observing the change in chemical shift for the aromatic fluorines using ^19F-NMR. (Fluorine shifts associated with the desired migration were confirmed by spiking with authentic analogue). The sample is analyzed by ^19F-NMR at approxiamately 0, 1.5, 3, 24, 48, and 144 hours. The amount of O-acyl pro-drug, N-acyl pro-drug, and desired migration product at each time point are assigned by integrating the corresponding NMR signal.
# N˜1˜-[(2R,3S)-3-amino-4-(3,5-difluorophenyl)-2-hydroxybutyl]-5-(1,3-oxazol-2-yl)-N˜3˜,N˜3˜-dipropyl-N˜1˜-[3-(trifluoromethyl)benzyl]isophthalamide hydrochloride (PREPARATION 7, 5 mg) is dissolved in DMSO-d6 (500 μL) and pH 4 buffer solution (500 μL, potassium hydrogen phthalate buffer) is added. The sample is then heated to 40° C. The N-acyl to N-terminal N-acyl migration is monitored by observing the change in chemical shift for the aromatic fluorines using ^19F-NMR. (Fluorine shifts for the desired migration product in the presence of buffer was confirmed by spiking with authentic migration product, N^1-((1S,2R)-1-(3,5-difluorobenzyl)-2-hydroxy-3-{[3-(trifluoromethyl)benzyl]amino}propyl)-5-(1,3-oxazol-2-yl)-N^3,N^3-dipropylisophthalamide.) NMR data is collected at 0, 1, 3, 25, 48, 96, and 144 hours. The amount of N-acyl pro-drug and desired migration product present at each time point is assigned by integrating the corresponding NMR signal.
# The following examples illustrate the solution acyl group migration of compounds of the formulae (I) and (X) as observed by ^19F NMR spectroscopy. Data were collected as described in Example 1, above.
"HEA product (% present) (pH 4, 40° C., time 0 hr) [%]","N-acyl prodrug (% present) (pH 4, 40° C., time 0 hr) [%]","O-acyl pro-drug (% present) (pH 4, 40° C., time 0 hr) [%]","HEA product (% present) (pH 4, 40° C., time 1 hr) [%]","N-acyl prodrug (% present) (pH 4, 40° C., time 1 hr) [%]","O-acyl pro-drug (% present) (pH 4, 40° C., time 1 hr) [%]","HEA product (% present) (pH 4, 40° C., time 3 hr) [%]","N-acyl prodrug (% present) (pH 4, 40° C., time 3 hr) [%]","O-acyl pro-drug (% present) (pH 4, 40° C., time 3 hr) [%]","HEA product (% present) (pH 4, 40° C., time 24 hr) [%]","N-acyl prodrug (% present) (pH 4, 40° C., time 24 hr) [%]","O-acyl pro-drug (% present) (pH 4, 40° C., time 24 hr) [%]","HEA product (% present) (pH 4, 40° C., time 48 hr) [%]","N-acyl prodrug (% present) (pH 4, 40° C., time 48 hr) [%]","O-acyl pro-drug (% present) (pH 4, 40° C., time 48 hr) [%]","HEA product (% present) (pH 7, 40° C., time 0 hr) [%]","N-acyl prodrug (% present) (pH 7, 40° C., time 0 hr) [%]","O-acyl pro-drug (% present) (pH 7, 40° C., time 0 hr) [%]","HEA product (% present) (pH 7, 40° C., time 1 hr) [%]","N-acyl prodrug (% present) (pH 7, 40° C., time 1 hr) [%]",further results,SMILES
0,100,0,0,100,0,0,100,0,3,97,0,5,95,0,0,100,0,3,97,"HEA product (% present) (pH 4, 40° C., time 96 hr): 8%; N-acyl prodrug (% present) (pH 4, 40° C., time 96 hr): 92%; O-acyl pro-drug (% present) (pH 4, 40° C., time 96 hr): 0%; O-acyl pro-drug (% present) (pH 7, 40° C., time 1 hr): 0%; HEA product (% present) (pH 7, 40° C., time 3 hr): 9%; N-acyl prodrug (% present) (pH 7, 40° C., time 3 hr): 91%; O-acyl pro-drug (% present) (pH 7, 40° C., time 3 hr): 0%; HEA product (% present) (pH 7, 40° C., time 24 hr): 40%; N-acyl prodrug (% present) (pH 7, 40° C., time 24 hr): 60%; O-acyl pro-drug (% present) (pH 7, 40° C., time 24 hr): 0%; HEA product (% present) (pH 7, 40° C., time 48 hr): 63%; N-acyl prodrug (% present) (pH 7, 40° C., time 48 hr): 37%; O-acyl pro-drug (% present) (pH 7, 40° C., time 48 hr): 0%; HEA product (% present) (pH 7, 40° C., time 96 hr): 81%; N-acyl prodrug (% present) (pH 7, 40° C., time 96 hr): 19%; O-acyl pro-drug (% present) (pH 7, 40° C., time 96 hr): 0%","CCCN(CCC)C(=O)c1cc(C(=O)N(Cc2cccc(CC)c2)C[C@@H](O)[C@@H](N)Cc2cc(F)cc(F)c2)cc(-c2ncco2)c1.Cl [Preparation 19, N^1-[(2R,3S)-3-amino-4-(3,5-difluorophenyl)-2-hydroxybutyl]-N\(u)1\(d)-(3-ethylbenzyl)-5-(1,3-oxazol-2-yl)-N^3,N^3-dispropylisophthalamide hydrochloride]"
0,100,0,3,97,0,4,96,0,7,93,0,8,92,0,0,100,0,7,93,"HEA product (% present) (pH 4, 40° C., time 96 hr): 12%; N-acyl prodrug (% present) (pH 4, 40° C., time 96 hr): 88%; O-acyl pro-drug (% present) (pH 4, 40° C., time 96 hr): 0%; O-acyl pro-drug (% present) (pH 7, 40° C., time 1 hr): 0%; HEA product (% present) (pH 7, 40° C., time 3 hr): 12%; N-acyl prodrug (% present) (pH 7, 40° C., time 3 hr): 88%; O-acyl pro-drug (% present) (pH 7, 40° C., time 3 hr): 0%; HEA product (% present) (pH 7, 40° C., time 24 hr): 51%; N-acyl prodrug (% present) (pH 7, 40° C., time 24 hr): 49%; O-acyl pro-drug (% present) (pH 7, 40° C., time 24 hr): 0%; HEA product (% present) (pH 7, 40° C., time 48 hr): 73%; N-acyl prodrug (% present) (pH 7, 40° C., time 48 hr): 27%; O-acyl pro-drug (% present) (pH 7, 40° C., time 48 hr): 0%; HEA product (% present) (pH 7, 40° C., time 96 hr): 88%; N-acyl prodrug (% present) (pH 7, 40° C., time 96 hr): 12%; O-acyl pro-drug (% present) (pH 7, 40° C., time 96 hr): 0%","CCCN(CCC)C(=O)c1cc(C(=O)N(Cc2cccc(C(F)(F)F)c2)C[C@@H](O)[C@@H](N)Cc2cc(F)cc(F)c2)cc(-c2ncco2)c1.Cl [Preparation 20, N^1-[(2R,3S)-3-amino-4-(3,5-difluorophenyl)-2-hydroxybutyl]-5-(1,3-oxazol-2-yl)-N^3,N^3-dipropyl-N^1-[3-(trifluoromethyl)benzyl]-isophthalamide hydrochloride]"
0,0,100,13,0,87,27,0,66,78,0,9,86,0,0,0,0,100,100,0,"HEA product (% present) (pH 4, 40° C., time 0.5 hr): 7%; N-acyl prodrug (% present) (pH 4, 40° C., time 0.5 hr): 0%; O-acyl pro-drug (% present) (pH 4, 40° C., time 0.5 hr): 93%; HEA product (% present) (pH 4, 40° C., time 6 hr): 42%; N-acyl prodrug (% present) (pH 4, 40° C., time 6 hr): 0%; O-acyl pro-drug (% present) (pH 4, 40° C., time 6 hr): 49%; HEA product (% present) (pH 7, 40° C., time 0.5 hr): 10%; N-acyl prodrug (% present) (pH 7, 40° C., time 0.5 hr): 0%; O-acyl pro-drug (% present) (pH 7, 40° C., time 0.5 hr): 10%; O-acyl pro-drug (% present) (pH 7, 40° C., time 1 hr): 0%","C#Cc1cccc(C2(NC[C@@H](OC(=O)c3cc(C(=O)N(CCC)CCC)cc(-c4ncco4)c3)[C@@H](N)Cc3cc(F)cc(F)c3)CC2)c1 [Preparation 22, (1R,2S)-2-amino-3-(3,5-difluorophenyl)-1-({[1-(3-ethynylphenyl)cyclopropyl]amino}methyl)propyl 3-[(dipropylamino)carbonyl]-5-(1,3-oxazol-2-yl)benzoate]"
